Measurements: patent US20240409475A1, “INTERMEDIATE-RELEASE FERTILIZERS AND METHODS FOR MAKING SAME” (OSTARA NUTRIENT RECOVERY TECHNOLOGES INC., priority 2021, published 2024)

Tested on: canola
Assay: canola germination as a function of phosphate application rate
Assay type: in vivo
Details: media containing increasing concentrations of phosphate application
Text: FIG. 8 is a graph showing germination rate for canola as a function of phosphate applicant rate for various sources of phosphorus listed in Table 2.

Structure (SMILES) | germination of canola seedlings
N.N.O=P(O)(O)O [DAP, Di-Ammonium Phosphate] | inhibited at even the lowest application rate
N.O=P(O)(O)O [MAP, Mono-Ammonium Phosphate] | inhibited at even the lowest application rate
